Measured values reported in US20210038559A1, “CANNABINOIDS AND DERIVATIVES FOR PROMOTING IMMUNOGENICITY OF TUMOR AND INFECTED CELLS” (priority 2018, published 2021).

What follows are compounds tested on MHC-I expression by COLO 205 cells (assay: cells). Settings: not given.
Format: cell-based, human
Experimental: A panel of synthetic cannabinoids (Cayman Chemical, #9002891) was tested for MHC class I-inducing capability in COLO 205 cells as described above. COLO 205 cells were treated with the compounds at a concentration of 35 μM and evaluated for cell surface MHC class I expression after 48 hours. Cells were harvested, stained with MHC-I mAb W6/32 (Thermo Fisher). MHC-I expression was determined by flow cytometry.

Question: Which “Induction Fold” value does the source give for O=C(Oc1cccc2cccnc12)c1cn(CC2CCCCC2)c2ccccc12 [Example 38, 1-(cyclohexylmethyl)-8-quinolinyl ester-1H-indole-3-carboxylic acid] here?
Answer: Its value is 3.15 Fold.

Question: How did the “Induction Fold” value turn out when O=C(c1cccc2ccccc12)c1cn(CCN2CCOCC2)c2ccccc12 [Example 57, [1-[2-(4-morpholinyl)ethyl]-1H-indol-3-yl]-1-naphthalenyl-methanone] was run?
Answer: Its value is 2.89 Fold.

Question: How did the “Induction Fold” value turn out when CCCCCn1cc(C(=O)c2cccc3ccccc23)cc1-c1ccccc1C [Example 60, [5-(2-methylphenyl)-1-pentyl-1H-pyrrol-3-yl]-1-naphthalenyl-methanone] was run?
Answer: Its value is 2.85 Fold.

Question: For CCCn1cc(C(=O)c2cccc3ccccc23)c2ccccc21 [Example 65, 1-naphthalenyl(1-propyl-1H-indol-3-yl)-methanone], which “Induction Fold” value is on record?
Answer: Its value is 2.77 Fold.

Question: For CCCCCn1ccc(C(=O)c2cccc3ccccc23)c1 [Example 66, 1-naphthalenyl(1-pentyl-1H-pyrrol-3-yl)-methanone], which “Induction Fold” value is on record?
Answer: The value was 2.75 Fold.

Same assay, conditions: Homo sapiens, COLO 205, 48 h, MHC-I expression, COLO 205 cells, compounds at 35 μM, 48 hours, flow cytometry (W6/32); read-out: Induction Fold

Question: Which fold induction at 35 µM does the source give for CCCCCn1cc(C(=O)c2ccccc2I)c2ccccc21 [Example 36, (2-iodophenyl)(1-pentyl-1H-indol-3-yl)-methanone] here?
Answer: The fold induction at 35 µM was 3.3.

Question: Which fold induction at 35 µM does the source give for CCC(Cl)CCn1cc(C(=O)C2C(C)(C)C2(C)C)c2ccccc21 (stereo not shown) [Example 37] here?
Answer: Its fold induction at 35 µM is 3.3.

Question: Which fold induction at 35 µM does the source give for CCCCCCC(C)(C)c1ccc([C@@H]2CCC[C@H](O)C2)c(O)c1 [Example 39, 2[(1R,3S)-3-hydroxycyclohexyl]-5-(2-methyloctan-2-yl)phenol] here?
Answer: Its fold induction at 35 µM is 3.14.

Question: Which fold induction at 35 µM does the source give for O=C(c1cccc2ccccc12)c1nc2ccccc2n1CCCCCF [Example 40, (1-(5-fluoropentyl)-1H-benzo[d]imidazol-2-yl)(naphthalen-1-yl)methanone] here?
Answer: Its fold induction at 35 µM is 3.14.

Question: Which fold induction at 35 µM does the source give for CC(C)Cn1cc(C(=O)c2cccc3ccccc23)c2ccccc21 [Example 41, (1-isobutyl-1H-indol-3-yl)(naphthalen-1-yl)methanone] here?
Answer: The fold induction at 35 µM was 3.11.

Question: Which fold induction at 35 µM does the source give for COc1cccc(CC(=O)c2cn(CCC3CCCCC3)c3ccccc23)c1 [Example 42, 1-(1-(2-cyclohexylethyl)-1H-indol-3-yl)-2-(3-methoxyphenyl)ethanone] here?
Answer: The fold induction at 35 µM was 3.07.

Question: Which fold induction at 35 µM does the source give for COc1cccc2c(C(=O)N[C@@H]3C(C)(C)[C@@H]4CC[C@@]3(C)C4)cn(CCN3CCOCC3)c12 [Example 43, 7-methoxy-1-[2-(4-morpholinyl)ethyl]-N-[(1S,2 S,4R)-1,3,3-trimethylbicyclo[2.2.1]hept-2-yl]-1H-indole-3-carboxamide] here?
Answer: The fold induction at 35 µM was 3.06.

Question: COc1ccc(CC(=O)c2cn(CCC3CCCCC3)c3ccccc23)cc1 [Example 44, 1-(1-(2-cyclohexylethyl)-1H-indol-3-yl)-2-(4-methoxyphenyl)ethanone] was tested. Which fold induction at 35 µM did it give?
Answer: Its fold induction at 35 µM is 3.03.

Question: For CCC(F)CCn1cc(C(=O)Oc2cccc3cccnc23)c2ccccc21 (stereo not shown) [Example 45, quinolin-8-yl 1-(3-fluoropentyl)-1H-indole-3-carboxylate], which fold induction at 35 µM is on record?
Answer: The fold induction at 35 µM was 3.02.

Question: For O=C(Oc1ccc2cccnc2c1)c1cn(CC2CCCCC2)c2ccccc12 [Example 47, quinolin-7-yl 1-(cyclohexylmethyl)-1H-indole-3-carboxylate], which fold induction at 35 µM is on record?
Answer: Its fold induction at 35 µM is 3.01.

Question: How did the fold induction at 35 µM turn out when CCC(CC)n1cc(C(=O)c2cccc3ccccc23)c2ccccc21 [Example 48, naphthalen-1-yl(1-(pentan-3-yl)-1H-indol-3-yl)methanone] was run?
Answer: Its fold induction at 35 µM is 3.

Question: How did the fold induction at 35 µM turn out when CC(C)(C)Cn1cc(C(=O)c2cccc3ccccc23)c2ccccc21 [Example 49, naphthalen-1-yl(1-neopentyl-1H-indol-3-yl)-methanone] was run?
Answer: Its fold induction at 35 µM is 3.

Question: CCCCCn1cc(C(=O)c2cccc3cccc(Cl)c23)c2ccccc21 [Example 50, (8-chloronaphthalen-1-yl)(1-pentyl-1H-indol-3-yl)methanone] was tested. Which fold induction at 35 µM did it give?
Answer: The fold induction at 35 µM was 3.

Question: For CC1(C)C(C(=O)c2cn(CCCCCF)c3ccccc23)C1(C)C [Example 51, (1-(5-fluoropentyl)-1H-indol-3-yl)(2,2,3,3-tetramethylcyclopropyl)methanone], which fold induction at 35 µM is on record?
Answer: The fold induction at 35 µM was 2.99.

Question: How did the fold induction at 35 µM turn out when CCCCCn1cc(C(=O)Oc2cncc3ccccc23)c2ccccc21 [Example 52, isoquinolin-4-yl 1-pentyl-1H-indole-3-carboxylate] was run?
Answer: Its fold induction at 35 µM is 2.98.

Question: With CCCCCn1cc(C(=O)Oc2ccc3cnccc3c2)c2ccccc21 [Example 53, isoquinolin-6-yl 1-pentyl-1H-indole-3-carboxylate] as the compound, how does the fold induction at 35 µM read?
Answer: Its fold induction at 35 µM is 2.97.

Question: O=C(c1ccccc1I)c1cn(CCCCCF)c2ccccc12 [Example 54, [1-(5-fluoropentyl)-1H-indol-3-yl](2-iodophenyl)-methanone] was tested. Which fold induction at 35 µM did it give?
Answer: Its fold induction at 35 µM is 2.93.

Question: Which fold induction at 35 µM does the source give for N#CCCCCn1cc(C(=O)c2cccc3ccccc23)c2ccccc21 [Example 55, 3-(1-naphthalenylcarbonyl)-1H-Indole-1-pentanenitrile] here?
Answer: Its fold induction at 35 µM is 2.92.

Question: CCCCCn1cc(C(=O)c2cccc(OC)c2)c2ccccc21 [Example 56, (3-methoxyphenyl)(1-pentyl-1H-indol-3-yl)methanone] was tested. Which fold induction at 35 µM did it give?
Answer: The fold induction at 35 µM was 2.9.

Question: With CCC(C)Cn1cc(C(=O)c2cccc3ccccc23)c2ccccc21 (stereo not shown) [Example 58, N-(2-methylbutyl)-3-(1-naphthoyl)-indole] as the compound, how does the fold induction at 35 µM read?
Answer: The fold induction at 35 µM was 2.86.

Question: For CCCCCn1cc(C(=O)Cc2ccc(OC)cc2)c2ccccc21 [Example 59, 2-(4-methoxyphenyl)-1-(1-pentyl-1H-indol-3-yl)-ethanone], which fold induction at 35 µM is on record?
Answer: Its fold induction at 35 µM is 2.85.

Question: How did the fold induction at 35 µM turn out when CC1(C)C(C(=O)c2cn(Cc3ccc(F)cc3)c3ccccc23)C1(C)C [Example 62, (1-(4-fluorobenzyl)-1H-indol-3-yl)(2,2,3,3-tetramethylcyclopropyl)methanone] was run?
Answer: Its fold induction at 35 µM is 2.79.

Question: With CCCCCn1cc(C(=O)Cc2ccc(Cl)cc2)c2ccccc21 [Example 64, 2-(4-chlorophenyl)-1-(1-pentyl-1H-indol-3-yl)-ethanone] as the compound, how does the fold induction at 35 µM read?
Answer: Its fold induction at 35 µM is 2.77.

Question: How did the fold induction at 35 µM turn out when CC(C)[C@H](NC(=O)c1nn(CC2CCCCC2)c2ccccc12)C(N)=O [Example 67, N-[(1S)-1-(aminocarbonyl)-2-methylpropyl]-1-(cyclohexylmethyl)-1H-indazole-3-carboxamide] was run?
Answer: The fold induction at 35 µM was 2.75.

Question: Which fold induction at 35 µM does the source give for CN1CCCCC1Cn1cc(C(=O)C23CC4CC(CC(C4)C2)C3)c2ccccc21 (stereo not shown) [Example 68, [1-[(1-methyl-2-piperidinyl)methyl]-1H-indol-3-yl]tricyclo[3.3.1.13,7]dec-1-yl-methanone] here?
Answer: Its fold induction at 35 µM is 2.72.

Question: For CCCCn1cc(C(=O)c2ccc(C)c3ccccc23)c2ccccc21 [Example 69, (1-butyl-1H-indol-3-yl)(4-methylnaphthalen-1-yl)methanone], which fold induction at 35 µM is on record?
Answer: Its fold induction at 35 µM is 2.71.

Same assay, conditions: MHC-I expression, COLO 205 cells, compounds at 35 μM, 48 hours, flow cytometry (W6/32)

Question: For COC(=O)[C@@H](NC(=O)c1cn(CC2CCCCC2)c2ccccc12)C(C)(C)C [Example 31, N-[[1-(cyclohexylmethyl)-1H-indol-3-yl]carbonyl]-3-methyl-1-valine, methyl ester], which “Induction Fold” value is on record?
Answer: Its value is 3.35 Fold.

Question: For COC(=O)[C@@H](NC(=O)c1nn(Cc2ccc(F)cc2)c2ccccc12)C(C)(C)C [Example 46, N-[[1-[(4-fluorophenyl)methyl]-1H-indazol-3-yl]carbonyl]-3-methyl-1-valine, methyl ester], which “Induction Fold” value is on record?
Answer: The value was 3.02 Fold.

Question: CCCCCCC(C)(C)C1=CC(=O)C([C@H]2CCC[C@@H](O)C2)=CC1=O [Example 61, 3′R-hydroxy-4-(2-methyloctan-2-yl)-[1,1′S-bi(cyclohexane)]-3,6-diene-2,5-dione] was tested. Which “Induction Fold” value did it give?
Answer: Its value is 2.85 Fold.
